Reference: patent US3952012A, “Aroyl-substituted pyrroles” (McNeil Laboratories, Incorporated, priority 1974, dated 1976)

Each molecule was assayed on kaolin-induced rat paw edema (assay: kaolin-induced rat paw edema assay: inhibition of paw swelling, single oral dose). Settings: 3.0 mg/kg.
Format: in vivo, rat (male Holtzman)
Experimental: In the kaolin-induced rat paw edema assay, the ability of a compound, when administered in a single oral dose, to inhibit the swelling of the rat paw injected with a standard amount (0.1 ml.) of 10% kaolin suspension in saline is measured. For comparative purposes, the activity of the compound to be tested is measured against that produced by the known anti-inflammatory agent, phenylbutazone. Male Holtzman rats are used in the assay.

Row | SMILES | inhibition [%]
1 | CCc1cc(CC(=O)O)n(C)c1C(=O)c1ccc(Cl)cc1 [5-(p-Chlorobenzoyl)-4-ethyl-1-methylpyrrole-2-acetic acid] | 29
2 | Cc1cc(C(C)C(=O)O)n(C)c1C(=O)c1ccc(Cl)cc1 (stereo not drawn) [5-(p-Chlorobenzoyl)-1,4,α-trimethylpyrrole-2-acetic acid] | 37

Same assay, conditions: 9.0 mg/kg

Row | SMILES | inhibition [%]
3 | CCc1cc(CC(=O)O)n(C)c1C(=O)c1ccc(Cl)cc1 [5-(p-Chlorobenzoyl)-4-ethyl-1-methylpyrrole-2-acetic acid] | 47
4 | Cc1cc(C(C)C(=O)O)n(C)c1C(=O)c1ccc(Cl)cc1 (stereo not drawn) [5-(p-Chlorobenzoyl)-1,4,α-trimethylpyrrole-2-acetic acid] | 53

Same assay, conditions: 80 mg/kg, comparator

Row | SMILES | inhibition
5 | CCCCC1C(=O)N(c2ccccc2)N(c2ccccc2)C1=O [phenylbutazone, reference compound] | 30-40%

Same assay, conditions: 100 mg/kg, comparator

Row | SMILES | inhibition
6 | CCCCC1C(=O)N(c2ccccc2)N(c2ccccc2)C1=O [phenylbutazone, reference compound] | 50-60%

Same assay, conditions: Rattus norvegicus, po, Table I; 12.5 mg/kg p.o.; read-out: % INHIBITION (Average 10 rats)

Row | SMILES | inhibition in vivo at 12.5 mg/kg [%]
7 | Cc1ccccc1C(=O)c1ccc(CC(=O)O)n1C [5-(o-methylbenzoyl)-do, 1-Methyl-5-(o-toluoyl)-pyrrole-2-acetic acid] | 34

Same assay, conditions: Rattus norvegicus, po, Table I; 25 mg/kg p.o.; read-out: % INHIBITION (Average 10 rats)

Row | SMILES | inhibition in vivo at 25 mg/kg [%]
8 | Cn1c(CC(=O)NO)ccc1C(=O)c1ccc(Cl)cc1 [5-(p-Chlorobenzoyl)-1-methylpyrrole-2-acetohydroxamic acid] | 33
9 | CCC(C(=O)O)c1ccc(C(=O)c2ccc(Cl)cc2)n1C (stereo not drawn) [5-(p-Chlorobenzoyl)-α-ethyl-1-methylpyrrole-2-acetic acid] | 22
10 | COc1ccc(C(=O)c2ccc(CC(=O)O)n2C)cc1 [5-(p-methoxybenzoyl)-do, 5-(p-Anisoyl)-1-methylpyrrole-2-acetic acid] | 42
11 | Cn1c(CC(=O)O)ccc1C(=O)c1ccc(Cl)cc1Cl [5-(2',4'-dichlorobenzoyl)-do, 5-(2',4'-Dichlorobenzoyl)-1-methylpyrrole-2-acetic acid] | 51
12 | Cn1c(CC(=O)O)ccc1C(=O)c1ccc(F)cc1 [5-(p-fluorobenzoyl)-do, 5-(p-fluorobenzoyl)-1-methylpyrrole-2-acetic acid] | 42
13 | CCNC(=O)Cc1ccc(C(=O)c2ccc(Cl)cc2)n1C [5-(p-Chlorobenzoyl)-N-ethyl-1-methylpyrrole-2-acetamide] | 25
14 | CCN(CC)CCNC(=O)Cc1ccc(C(=O)c2ccc(Cl)cc2)n1C [5-(p-Chlorobenzoyl)-N-(2-diethylaminoethyl)-1-methylpyrrole-2-acetamide] | 27
15 | Cn1c(CCC(=O)O)ccc1C(=O)c1ccc(Cl)cc1 [5-(p-Chlorobenzoyl)-1-methylpyrrole-2-propionic acid] | 63
16 | Cn1c(CC(=O)O)ccc1C(=O)c1ccc(Br)cc1 [5-(p-bromobenzoyl)-do, 5-(p-bromobenzoyl)-1-methylpyrrole-2-acetic acid] | 42
17 | Cc1ccc(C(=O)c2ccc(CC(=O)O)n2C)s1 [1-Methyl-5-(5-methyl-2-thenoyl)-pyrrole-2-acetic acid] | 48
18 | Cn1c(CC(=O)O)ccc1C(=O)c1cccs1 [5-(2-thenoyl)-do, 1-Methyl-5-(2-thenoyl)-pyrrole-2-acetic acid] | 63
19 | Cn1c(CC(=O)O)ccc1C(=O)c1ccc(N)cc1 [5-(p-aminobenzoyl)-do, 5-(p-Aminobenzoyl)-1-methylpyrrole-2-acetic acid] | 23
20 | Cn1c(CC(=O)O)ccc1C(=O)c1ccccc1 [Example 5-benzoyl-do, 5-Benzoyl-1-methylpyrrole-2-acetic acid] | 38
21 | Cn1c(CC(=O)O)ccc1C(=O)c1ccccc1Cl [5-(o-chlorobenzoyl)-do, 5-(o-Chlorobenzoyl)-1-methylpyrrole-2-acetic acid] | 44
22 | Cn1c(CC(=O)O)ccc1C(=O)c1ccc(Cl)cc1 [5-(p-Chlorobenzoyl)-1-methylpyrrole-2-acetic acid] | 47
23 | Cc1ccc(C(=O)c2ccc(CC(=O)O)n2C)cc1 [5-(p-methylbenzoyl)-do, 5-(p-Toluoyl)-1-methylpyrrole-2-acetic acid] | 44
24 | CCN(CC)C(=O)Cc1ccc(C(=O)c2ccc(Cl)cc2)n1C [5-(p-Chlorobenzoyl)-N,N-diethyl-1-methylpyrrole-2-acetamide] | 36
25 | Cn1c(CC(=O)O)ccc1C(=O)c1cccc(Cl)c1 [5-(m-chlorobenzoyl)-do, 5-(m-Chlorobenzoyl)-1-methylpyrrole-2-acetic acid] | 41
26 | O=C(O)Cc1ccc(C(=O)c2ccc(Cl)cc2)[nH]1 [5-(p-Chlorobenzoyl)-pyrrole-2-acetic acid] | 32
27 | COC(=O)Cc1ccc(C(=O)c2ccc(Cl)cc2)n1C [Methyl 5-(p-chlorobenzoyl)-1-methylpyrrole-2-acetate] | 38
28 | Cn1c(CC(=O)O)ccc1C(=O)c1ccc(C(F)(F)F)cc1 [5-(p-trifluoromethylbenzoyl)-do, 1-methyl-5-(p-trifluoromethylbenzoyl)-pyrrole-2-acetic acid] | 60
29 | CCOC(=O)Cc1ccc(C(=O)c2ccc(Cl)cc2)n1C [Ethyl 5-(p-chlorobenzoyl)-1-methylpyrrole-2-acetate] | 37

Same assay, conditions: Rattus norvegicus, po, Table I; 50 mg/kg p.o.; read-out: % INHIBITION (Average 10 rats)

Row | SMILES | inhibition in vivo at 50 mg/kg [%]
30 | O=C(O)Cc1ccc(C(=O)c2ccc(Cl)cc2)n1Cc1ccccc1 [1-Benzyl-5-(p-chlorobenzoyl)-pyrrole-2-acetic acid] | 23
31 | Cn1c(CC(N)=O)ccc1C(=O)c1ccc(Cl)cc1 [5-(p-Chlorobenzoyl)-1-methylpyrrole-2-acetamide] | 35
32 | CC(C(=O)O)c1ccc(C(=O)c2ccc(Cl)cc2)n1C (racemic) [5-(p-chlorobenzoyl)-α-methyl-1-methylpyrrole-2-acetic acid] | 56
33 | Cc1c(CC(=O)O)c[nH]c1C(=O)c1ccc(Cl)cc1 [5-(p-Chlorobenzoyl)-4-methylpyrrole-3-acetic acid] | 43

Same assay, conditions: Rattus norvegicus, po, Table I; 100 mg/kg p.o.; read-out: % INHIBITION (Average 10 rats)

Row | SMILES | inhibition in vivo at 100 mg/kg [%]
34 | Cn1c(CC(=O)O)ccc1C(=O)c1ccc(C#N)cc1 [5-(p-cyanobenzoyl)-do, 5-(p-cyanobenzoyl)-1-methylpyrrole-2-acetic acid] | 20
35 | Cn1c(CC(=O)O)ccc1C(=O)c1ccc([N+](=O)[O-])cc1 [5-(p-nitrobenzoyl)-do, 5-(p-Nitrobenzoyl)-1-methylpyrrole-2-acetic acid] | 35
36 | CCn1c(CC(=O)O)ccc1C(=O)c1ccc(Cl)cc1 [5-(p-Chlorobenzoyl)-1-ethylpyrrole-2-acetic acid] | 43
37 | Cc1cc(CC(=O)O)[nH]c1C(=O)c1ccccc1 [5-benzoyl-4-methylpyrrole-2-acetic acid, 5-Benzoyl-4-methylpyrrole-2-acetic acid] | 34

Same assay, conditions: Table I; 25 mg/kg p.o.; 25 mg/kg

Row | SMILES | % INHIBITION (Average 10 rats) [%]
38 | CC(C(=O)O)c1ccc(C(=O)c2ccc(Cl)cc2)n1C (single isomer, unassigned; (-)) [(-)-5-(p-chlorobenzoyl)-α-methyl-1-methylpyrrole-2-acetic ac] [(-)-5-(p-chlorobenzoyl)-1,α-dimethylpyrrole-2-acetic acid] | 24
39 | CC(C(=O)O)c1ccc(C(=O)c2ccc(Cl)cc2)n1C (single isomer, unassigned; (+)) [(+)-5-(p-chlorobenzoyl)-α-methyl-1-methylpyrrole-2-acetic ac] [(+)-5-(p-chlorobenzoyl)-1,α-dimethylpyrrole-2-acetic acid] | 62

Same assay, conditions: dose of 2.5 mg/kg

Row | SMILES | inhibition [%]
40 | Cc1cc(CC(=O)O)n(C)c1C(=O)c1ccc(Cl)cc1 [5-(p-chlorobenzoyl)-1,4-dimethylpyrrole-2-acetic acid] | 51

Same assay, conditions: single oral dose 12.5 mg/kg

Row | SMILES | inhibition
41 | Cn1c(CC(=O)O)ccc1C(=O)c1ccc(Cl)cc1 [5-(p-Chlorobenzoyl)-1-methylpyrrole-2-acetic acid] | about 35%

Same assay, conditions: single oral dose 25 mg/kg

Row | SMILES | inhibition
42 | Cn1c(CC(=O)O)ccc1C(=O)c1ccc(Cl)cc1 [5-(p-Chlorobenzoyl)-1-methylpyrrole-2-acetic acid] | about 47%

Same assay, conditions: single oral doses of 50-100 mg/kg

Row | SMILES | inhibition
43 | Cn1c(CC(=O)O)ccc1C(=O)c1ccc(Cl)cc1 [5-(p-Chlorobenzoyl)-1-methylpyrrole-2-acetic acid] | 45-53%

The molecules below were run on cotton pellet granuloma (assay: cotton pellet granuloma assay: granuloma tissue formed around implanted cotton pellet). Settings: 25 mg/kg orally, daily for seven days; water controls 110 mg.
Format: in vivo, rat (male Holtzman)
Experimental: In the cotton pellet granuloma assay, the ability of a compound, when administered orally to male Holtzman rats daily for seven days, to inhibit the amount of granuloma tissue formed in or around a cotton pellet implanted beneath the skin in the thoracic region of the animal is measured and compared to water controls. The method is described by Charles A. Winter and coworkers in J. Pharmacol., 141, 369 (1963). Analysis of variance is used to determine the significance of the results.

Row | SMILES | granuloma weight
44 | COc1ccc(C(=O)c2ccc(CC(=O)O)n2C)cc1 [5-(p-methoxybenzoyl)-do, 5-(p-Anisoyl)-1-methylpyrrole-2-acetic acid] | about 71 mg

Same assay, conditions: 100 mg/kg orally, daily for seven days; water controls 115 mg

Row | SMILES | granuloma weight
45 | Cn1c(CC#N)ccc1C(=O)c1ccc(Cl)cc1 [5-(p-Chlorobenzoyl)-1-methylpyrrole-2-acetonitrile] | about 98 mg
